How the values were obtained:
[1] = Surface tension determination (Kruss K12 Tensiometer, Wilhelmy plate); assay type: physicochemical
Method: Test Method III—Surface Tension Determination
All surface tensions were determined using a Kruss K12 Tensiometer. It was integrated with an automatic dosimat and a computer, using a software package for dynamic contact angle (K121). The program was run using a Wilhelmy platinum plate (PL12) and glass sample vessel (GL7). All parts referenced above including instrument and computer can be purchased directly from Kruss USA, Charlotte, N.C.

[2] = Bioelimination study, amount of fluorochemical sulfonate in male rat liver tissue; assay type: in vivo; conditions: for Amount of Sulfonate, Day 1N / Amount of Sulfonate, Day 1 / Amount of Sulfonate, Day 14N / Amount of Sulfonate, Day 14 / Amount of Sulfonate, Day 28N / Amount of Sulfonate, Day 28: male rat liver; for Amount of Sulfonate, Day 1N / Amount of Sulfonate, Day 14N / Amount of Sulfonate, Day 28N: normalized to a feeding level of 3 mg/kg body weight per day; for Amount of Sulfonate, Day 1 / Amount of Sulfonate, Day 14 / Amount of Sulfonate, Day 28: potassium salts dosed at 30 (C4), 10 (C6), 3 (C8) mg/kg body weight/day; for elimination from the body: tested in the form of its potassium salt
Method: Bioelimination Study with Perfluorobutanesulfonate
Comparative study of potassium perfluorobutanesulfonate (using a dose level of 30 mg/kg body weight/day), potassium perfluorohexanesulfonate (using a dose level of 10 mg/kg body weight/day), and potassium perfluorooctanesulfonate (using a dose level of 3 mg/kg body weight/day).

[3] = Surface Resistivity Test (ASTM D-257) of topically coated polyester film; conditions: 72° F., 27% relative humidity; for Surface Resistivity 1% MEK solution: 1% solution in MEK coated on polyester film; for Surface Resistivity 6% MEK: 6% solution in MEK coated on polyester film
Method: Test Method IV—Surface Resistivity Test
The Surface Resistivity Test was conducted according to the procedure of ASTM Standard D-257; “D.C. Resistance or Conductance of Insulating Materials”. The surface resistivity was measured under these conditions using an ETS Model 872 Wide Range Resistance Meter fitted with a Model 803B probe (Electro-Tech Systems, Inc., Glenside, Pa.). This apparatus applies an external voltage of 10 Volts across two concentric ring electrodes and provides surface resistivity readings in ohm/cm^2. The room temperature was 72° F. and there was a 27% relative humidity.
Topically Coated Polyester Film.
A 1% and 6% solution of the antistatic agent to be tested in methylethyl ketone (MEK) was prepared. About 2 mL of solution was pipetted onto the top of a sheet of polyester film with 25.5 cm by 17.8 cm dimensions. The solution was then drawn over the film using a #12 wire wound bar. The resulting coating was dried in a forced air oven for 2.5 minutes at 65° C.

[4] = Thermal gravimetric analysis (TGA); assay type: physicochemical; conditions: for Wt. % remaining @ given Temp: nitrogen, 10° C. per minute ramp; for weight loss compared with chloride salt of the same cation: processing range of 200-320° C.
Method: Test Methods Test Method I—Thermal Gravimetric Analysis (TGA)
The thermal decomposition of each salt was determined by thermal gravimetric analysis (TGA) under an inert nitrogen atmosphere using a 10° C. per minute temperature ramp using a PerkinElmer Thermogravimetric Analyzer TGA 7, manufactured by PerkinElmer Instruments of Norwalk, Conn.
Table 3 provides thermal gravimetric data for antistats of the present invention and comparative antistats.

[5] = at 28 days following completion of feeding, after normalization to the same feeding levels
[6] = liver amount at 28 days following completion of feeding
[7] = liver amount immediately following completion of feeding

Compound: O=S(=O)([N-]S(=O)(=O)C(F)(F)C(F)(F)C(F)(F)C(F)(F)F)C(F)(F)C(F)(F)C(F)(F)C(F)(F)F.[K+] [C4F9SO2NKSO2C4F9, potassium bis(perfluorobutanesulfonyl)imide]
- surface energy ([1]; 10 ppm in water): 61.85 dyne/cm
- surface energy ([1]; 100 ppm in water): 41.61 dyne/cm
- surface energy ([1]; 1000 ppm in water): 34.02 dyne/cm

Compound: O=S(=O)([O-])C(F)(F)C(F)(F)C(F)(F)C(F)(F)F.[K+] [Antistat C4F9SO3K, Potassium perfluorobutane sulfonate]
- factor lower than C6F13SO3^− [2, 5]: 4400
- factor lower than C6F13SO3^− [2, 6]: > 1400
- factor lower than C6F13SO3^− [2, 7]: > 100
- Amount of Sulfonate, Day 1N [2]: 0.31 ppm
- Amount of Sulfonate, Day 1 [2]: 3.09 ± 1.58 ppm
- Amount of Sulfonate, Day 14N [2]: 0.0126 ppm
- Amount of Sulfonate, Day 14 [2]: 0.126 ± 0.084 ppm
- Amount of Sulfonate, Day 28N [2]: 0.0025 ppm
- Amount of Sulfonate, Day 28 [2]: 0.025 ± 0.015 ppm
- elimination from the body ([2]; listed as C4F9SO3^−): unexpectedly fast and effective elimination
- elimination from the body ([2]; listed as perfluorobutanesulfonate): eliminates from the body more rapidly than perfluorohexanesulfonate and much more rapidly than perfluorooctanesulfonate
- surface energy ([1]; 10 ppm in water): 70 dyne/cm
- surface energy ([1]; 100 ppm in water): 67.5 dyne/cm
- surface energy ([1]; 1000 ppm in water): 53 dyne/cm

Compound: [CH3(OCH2CH2)19(OCH2CHCH3)2NH3^+][^−O3SCF3] [Comparative Antistat 2]
- Surface Resistivity 1% MEK solution [3]: 1.5 × 10^12 Ohm/cm^2
- Surface Resistivity 6% MEK [3]: 1.6 × 10^12 Ohm/cm^2

Compound: O=S(=O)([O-])C(F)(F)C(F)(F)C(F)(F)C(F)(F)C(F)(F)C(F)(F)C(F)(F)C(F)(F)F.[K+] [Antistat C8F17SO3K, Potassium perfluorooctanesulfonate]
- Amount of Sulfonate, Day 1N [2]: 419 ppm
- Amount of Sulfonate, Day 1 [2]: 419 ± 86 ppm
- Amount of Sulfonate, Day 14N [2]: 309 ppm
- Amount of Sulfonate, Day 14 [2]: 309 + 34 ppm
- Amount of Sulfonate, Day 28N [2]: 237 ppm
- Amount of Sulfonate, Day 28 [2]: 237 ± 25 ppm
- surface energy ([1]; 10 ppm in water): 67.68 dyne/cm
- surface energy ([1]; 100 ppm in water): 54.09 dyne/cm
- surface energy ([1]; 1000 ppm in water): 33.17 dyne/cm

Compound: [C12H25N^+(CH3)(CH2CH2O)mH(CH2CH2O)nH^−Cl] (m + n = 15) [ETHOQUAD ™ C/25]
- Wt. % remaining @ given Temp ([4]; 200° C.): 97.2 Wt. %
- Wt. % remaining @ given Temp ([4]; 240° C.): 89.4 Wt. %
- Wt. % remaining @ given Temp ([4]; 280° C.): 85.9 Wt. %
- Wt. % remaining @ given Temp ([4]; 320° C.): 81.8 Wt. %

Compound: [C18H37N^+(CH3)(CH2CH2O)mH(CH2CH2O)nH^−Cl] (m + n = 15) [ETHOQUAD ™ 18/25]
- Wt. % remaining @ given Temp ([4]; 200° C.): 97.6 Wt. %
- Wt. % remaining @ given Temp ([4]; 240° C.): 90.8 Wt. %
- Wt. % remaining @ given Temp ([4]; 280° C.): 85.5 Wt. %
- Wt. % remaining @ given Temp ([4]; 320° C.): 82.0 Wt. %

Compound: O=S(=O)([O-])C(F)(F)C(F)(F)C(F)(F)C(F)(F)C(F)(F)C(F)(F)F.[K+] [C6F13SO3^−, potassium perfluorohexanesulfonate]
- factor lower than C8F17SO3^− [2, 5]: 21.5
- factor lower than C8F17SO3^− [2, 6]: 6.5
- factor lower than C8F17SO3^− [2, 7]: 1.3
- Amount of Sulfonate, Day 1N [2]: 98 ppm
- Amount of Sulfonate, Day 1 [2]: 327 ± 52 ppm
- Amount of Sulfonate, Day 14N [2]: 19 ppm
- Amount of Sulfonate, Day 14 [2]: 61.9 ± 11.7 ppm
- Amount of Sulfonate, Day 28N [2]: 11 ppm
- Amount of Sulfonate, Day 28 [2]: 36.3 ± 7.4 ppm

Compound: [(+)H3NCH(CH3)CH2[OCH(CH3)CH2]a[OCH2CH2]8.5[OCH2CH(CH3)]cNH3(+)][—N(SO2C4F9)2]2 (a+c=2.5); JEFFAMINE™ XJT-500 DBI salt [Antistat 1]
- Surface Resistivity 1% MEK solution [3]: 8.5 × 10^9 Ohm/cm^2
- Surface Resistivity 6% MEK [3]: 3.1 × 10^9 Ohm/cm^2

Compound: [(+)H3NCH(CH3)CH2[OCH(CH3)CH2]a[OCH2CH2]8.5[OCH2CH(CH3)]CNH3(+)][C8F17SO3^−]2 (a+c=2.5) [Comparative Antistat 1]
- Surface Resistivity 1% MEK solution [3]: 1.6 × 10^11 Ohm/cm^2
- Surface Resistivity 6% MEK [3]: 1.5 × 10^11 Ohm/cm^2

Compound: CH3CH2C[CH2(OCH2CH(CH3))xNH3^+][CH2(OCH2CH(CH3))yNH3^+][CH2(OCH2CH(CH3))zNH3^+][—N(SO2C4F9)2]3 where x+y+z˜5.3; JEFFAMINE™ T-403 DBI salt [Antistat 2]
- Surface Resistivity 1% MEK solution [3]: 2.4 × 10^10 Ohm/cm^2
- Surface Resistivity 6% MEK [3]: 1.5 × 10^11 Ohm/cm^2

Compound: [(+)H3NCH(CH3)CH2[OCH(CH3)CH2]a[OCH2CH2]8.5[OCH2CH(CH3)]CNH3(+)][—N(SO2CF3)2]2 (a+c=2.5); JEFFAMINE™ XJT-500 [^—N(SO2CF3)2]salt [Antistat 7]
- Surface Resistivity 1% MEK solution [3]: 1.2 × 10^9 Ohm/cm^2
- Surface Resistivity 6% MEK [3]: 3.7 × 10^8 Ohm/cm^2

Compound: [CH3(OCH2CH2)19(OCH2CHCH3)2NH3^+][^−N(SO2CF3)2] [Antistat 6]
- Surface Resistivity 1% MEK solution [3]: 1.6 × 10^9 Ohm/cm^2
- Surface Resistivity 6% MEK [3]: 7.8 × 10^9 Ohm/cm^2

Compound: [C18H37N^+(CH3)(CH2CH2O)mH(CH2CH2O)nH][^−N(SO2CF3)2]; (m+n=15) [Antistat 5]
- Wt. % remaining @ given Temp ([4]; 200° C.): 99.6 Wt. %
- Wt. % remaining @ given Temp ([4]; 240° C.): 99.2 Wt. %
- Wt. % remaining @ given Temp ([4]; 280° C.): 98.9 Wt. %
- Wt. % remaining @ given Temp ([4]; 320° C.): 98.0 Wt. %
- weight loss compared with chloride salt of the same cation [4]: less weight loss than ETHOQUAD™ 18/25

Compound: [C12H25N^+(CH3)(CH2CH2O)mH(CH2CH2O)nH][^−N(SO2CF3)2]; (m+n=15) [Antistat 4]
- Wt. % remaining @ given Temp ([4]; 200° C.): 99.7 Wt. %
- Wt. % remaining @ given Temp ([4]; 240° C.): 99.5 Wt. %
- Wt. % remaining @ given Temp ([4]; 280° C.): 99.3 Wt. %
- Wt. % remaining @ given Temp ([4]; 320° C.): 98.6 Wt. %
- weight loss compared with chloride salt of the same cation [4]: less weight loss than ETHOQUAD™ C/25

Compound: CH3CH2C[CH2(OCH2CH(CH3))xNH3^+][CH2(OCH2CH(CH3))yNH^3^+][CH2(OCH2CH(CH3))zNH3^+][^−N(SO2CF3)2]3 where x+y+z˜5.3; JEFFAMINE™ T-403 DMI salt [Antistat 3]
- Surface Resistivity 1% MEK solution [3]: 1.7 × 10^9 Ohm/cm^2
- Surface Resistivity 6% MEK [3]: 1.1 × 10^9 Ohm/cm^2
